Source: patent publication US20050261298A1, “Methods of treating conditions associated with an Edg-7 receptor” (priority 2002, published 2005)

Columns and labels:
Edg-2 = target: T1, Edg-2 (Homo sapiens, UniProt Q92633); assay: Calcium mobilization assay (FLIPR), inhibition of LPA-stimulated calcium increase; assay type: cell-based; settings: HTC cells expressing Edg-2
T1 construct: expressed in transfected cells; host or cells: HTC rat hepatoma cells

human Edg 7 receptors = target: T2, human Edg 7 receptors (Homo sapiens, UniProt Q9UBY5); assay: Calcium mobilization assay (FLIPR), inhibition of LPA response; assay type: cell-based
T2 construct: expressed in transfected cells
T2 sequence (Q9UBY5 1-353): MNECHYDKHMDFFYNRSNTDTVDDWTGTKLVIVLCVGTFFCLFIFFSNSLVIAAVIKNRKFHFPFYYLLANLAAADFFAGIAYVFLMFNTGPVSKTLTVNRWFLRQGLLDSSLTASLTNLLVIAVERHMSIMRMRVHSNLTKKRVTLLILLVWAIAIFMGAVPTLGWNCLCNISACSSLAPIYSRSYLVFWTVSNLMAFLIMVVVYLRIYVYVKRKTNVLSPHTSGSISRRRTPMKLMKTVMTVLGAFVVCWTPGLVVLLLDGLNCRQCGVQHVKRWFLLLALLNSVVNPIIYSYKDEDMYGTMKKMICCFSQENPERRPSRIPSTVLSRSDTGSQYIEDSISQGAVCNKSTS
Protocol: The compounds were tested in HTC cells expressing human Edg 7 receptors. […] The compounds are tested in this recombinant system first, and subsequently tested in cell lines expressing Edg-7 (in addition to other Edg receptors).
The radioligand binding assays were conducted as described in Section 6.15 (Example 15).
LPA receptors such as Edg-7, couple to calcium effector pathways, and result in increases in intracellular calcium following receptor activation (An, 1998, J. Cell. Biochem Supp. 30-31:147-157). This biological response lends itself to a very efficient, high-throughput screen using a Fluorescence Imaging Plate Reader (FLIPR; Molecular Devices, Sunnyvale, Calif.). The FLIPR system is a real-time, cell-based assay system with continuous fluorescence detection using a cooled CCD camera. The FLIPR system was used to developing an Edg-7 receptor screen. Rat hepatoma cells stably expressing Edg-7 receptor were plated on 384-well plates and loaded with a calcium dye loading kit (Molecular Devices, Sunnyvale, Calif.) for 1 hour at room temperature. Cells were then placed on the FLIPR^384 (Molecular Devices, Sunnyvale, Calif.) and excited by an argon laser at […]. The data for the entire 384-well plate was updated every second. An integrated robotic pipettor allowed for simultaneous compound addition into each individual well in the plate

T1 sequence (Q92633 whole entry): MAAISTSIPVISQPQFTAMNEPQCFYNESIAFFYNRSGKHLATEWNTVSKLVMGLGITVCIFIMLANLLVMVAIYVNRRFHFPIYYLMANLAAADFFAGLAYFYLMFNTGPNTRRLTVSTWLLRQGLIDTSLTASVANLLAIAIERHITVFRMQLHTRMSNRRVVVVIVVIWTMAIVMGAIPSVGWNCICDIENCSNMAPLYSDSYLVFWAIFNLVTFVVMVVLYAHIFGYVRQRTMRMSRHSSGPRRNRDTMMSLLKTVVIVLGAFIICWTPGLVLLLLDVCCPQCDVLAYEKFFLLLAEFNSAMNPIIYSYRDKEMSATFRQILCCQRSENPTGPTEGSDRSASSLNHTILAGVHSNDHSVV

CCOC(=O)c1c(NC(=O)NS(=O)(=O)c2ccccc2Cl)sc2c1CCCC2 [Compound 101] was tested, and the IC50 (Edg-2) was greater than 20000 nM, the “inhibition of LPA-stimulated calcium increases, Edg-2” value (Edg-2; concentrations as high as 20 µM) was “did not inhibit” and the “selective inhibition of the Edg-7 receptor (FIG. 1, FIG. 2)” value (human Edg 7 receptors; HTC cells expressing Edg-7) was “specifically inhibit”. The IC50 (human Edg 7 receptors; HTC cells expressing human Edg 7) was 1590 nM and the “Fold Selectivity” value (human Edg 7 receptors; inhibitory selectivity for Edg-7 relative to other Edg receptors) was greater than 12.6 Fold.
